Results on 5 compounds are retold here after article PMC5853558, “De novo identification of lipid II binding lipopeptides with antibacterial activity against vancomycin-resistant bacteria” (Chemical Science, 2017).

For the experiment, the system named is M. luteus (NCTC2665). In words: microbe, parasite or virus in culture. The note with it: for MIC of Ala scan of P8-D against M. luteus: Supplemental table S8, non-lipidated P8 variants, broth microdilution, highest tested 512 µg/ml. Format: cell-based, Micrococcus luteus. The procedure:
Section 4 Biological and biochemical experiments
4.1 Minimum inhibitory concentration assay
MIC values were determined by using the broth microdilution method. Peptides were dissolved first in DMSO and diluted with broth so that the final peptide concentration was 1024 µg/ml and the DMSO concentration was 4%. Peptide serial dilutions were made in TSB in a polypropylene 96-wells plate using 50 µl volumes. An overnight culture of the organism of interest was diluted to and OD600 of 0.01 and grown until they reach 0.5. The culture was then diluted to 1 x 10^6 CFU/ml and 50 µl of this suspension was added to each well. The highest concentrations were then 512 µg/ml peptide and 2% DMSO. The plates were incubated at the preferred growth temperature of the organism that was used and 250 rpm. […] When […]
determining the MICs of the lipidated peptides, the lipopeptides were first dissolved in DMSO and diluted with TSB so that the peptide concentration was 128 µg/ml and the DMSO concentration was 4%. After inoculation the highest peptide concentration evaluated was 64 µg/ml and the DMSO concentration was 2%. A DMSO control was tested for each strain to ensure the DMSO did not affect the growth of the particular strain. […]
Background: In broth dilution the organism is exposed to a series of concentrations in liquid medium.

*1 amine or outer side, *2 acyl side, *3 side chain or, on linkers, in order; H or OH if unused. Where a SMILES comes first, the peptide text is derived from it. Bridges are numbered along the chain shown (N, C = ends). [ ]: non-standard residue; d: D form. TBMB = c1c(C[*:1])cc(C[*:3])cc1C[*:2]

With `CC(C)C[C@H]1NC(=O)[C@H](NC(=O)[C@@H](C)N)CSCc2cc3cc(c2)CSC[C@@H](NC(=O)[C@@H](CC(C)C)NC(=O)[C@@H](CC(C)C)NC(=O)[C@@H](CO)NC(=O)[C@@H](CCC(N)=O)NC(=O)[C@@H](CC(C)C)NC1=O)C(=O)N[C@H](C)C(=O)N[C@H](Cc1ccc(O)cc1)C(=O)N[C@H](CO)C(=O)N[C@H]([C@H](C)O)C(=O)N[C@H](Cc1c[nH]cn1)C(=O)N[C@H](CCCNC(=N)N)C(=O)N[C@@H](C(=O)NCC(N)=O)CSC3` [Peptide P8-D-P10A] (H-[dA][dC][dL][dL][dQ][dS][dL][dL][dC][dA][dY][dS][dT][dH][dR][dC]G-NH2; linker 2-9-16 via TBMB; N-terminus assumed), the “MIC of Ala scan of P8-D against M. luteus” value (shortened to “MIC of Ala scan of P8-D”) came out at 128 µg/mL. For the compound `CC(C)C[C@H]1NC(=O)[C@H](NC(=O)[C@@H](C)N)CSCc2cc3cc(c2)CSC[C@@H](NC(=O)[C@@H](CC(C)C)NC(=O)[C@@H](CC(C)C)NC(=O)[C@@H](CO)NC(=O)[C@@H](CCC(N)=O)NC(=O)[C@@H](CC(C)C)NC1=O)C(=O)N1CCC[C@@H]1C(=O)N[C@H](Cc1ccc(O)cc1)C(=O)N[C@H](CO)C(=O)N[C@H]([C@H](C)O)C(=O)N[C@H](Cc1c[nH]cn1)C(=O)N[C@H](C)C(=O)N[C@@H](C(=O)NCC(N)=O)CSC3` [Peptide P8-D-R15A] (H-[dA][dC][dL][dL][dQ][dS][dL][dL][dC][dP][dY][dS][dT][dH][dA][dC]G-NH2; linker 2-9-16 via TBMB; N-terminus assumed), the “MIC of Ala scan of P8-D” value lay in the range of 128 to 256 µg/mL. On the same count and under the same terms, the value for `CC(C)C[C@H]1NC(=O)[C@@H](CC(C)C)NC(=O)[C@H](NC(=O)[C@@H](C)N)CSCc2cc3cc(c2)CSC[C@@H](NC(=O)[C@@H](CC(C)C)NC(=O)[C@@H](CC(C)C)NC(=O)[C@@H](CO)NC(=O)[C@@H](C)NC1=O)C(=O)N1CCC[C@@H]1C(=O)N[C@H](Cc1ccc(O)cc1)C(=O)N[C@H](CO)C(=O)N[C@H]([C@H](C)O)C(=O)N[C@H](Cc1c[nH]cn1)C(=O)N[C@H](CCCNC(=N)N)C(=O)N[C@@H](C(=O)NCC(N)=O)CSC3` [Peptide P8-D-Q5A] (H-[dA][dC][dL][dL][dA][dS][dL][dL][dC][dP][dY][dS][dT][dH][dR][dC]G-NH2; linker 2-9-16 via TBMB; N-terminus assumed) was greater than 512 µg/mL.

As for `CC(C)C[C@@H]1NC(=O)[C@@H]2CSCc3cc(cc(c3)CSC[C@@H](C(=O)NCC(N)=O)NC(=O)[C@H](CC(=O)O)NC(=O)[C@H](C(C)C)NC(=O)[C@H]([C@@H](C)O)NC(=O)[C@H](CCC(N)=O)NC(=O)[C@H](Cc3ccccc3)NC1=O)CSC[C@H](NC(=O)[C@H](C)N)C(=O)N[C@@H](Cc1ccc(O)cc1)C(=O)N1CCC[C@H]1C(=O)N[C@@H](C(C)C)C(=O)N[C@@H](CC(=O)O)C(=O)N[C@@H](Cc1c[nH]c3ccccc13)C(=O)N[C@@H](Cc1ccc(O)cc1)C(=O)N2` [Peptide P6] (H-ACYPVDWYCLFQTVDCG-NH2; linker 2-9-16 via TBMB; N-terminus assumed), the “MIC against M. luteus” value (Table 1, non-lipidated bicyclic peptides, broth microdilution in TSB, 16 h, read visually, n.a. = no activity, highest tested concentration 512 μg mL^–1) amounted to 128 μg mL^–1. Consider `CC(C)C[C@H]1NC(=O)[C@@H](C)NC(=O)[C@@H](CO)NC(=O)[C@@H](CCC(N)=O)NC(=O)[C@@H](CC(C)C)NC(=O)[C@@H](CC(C)C)NC(=O)[C@H](NC(=O)[C@@H](C)N)CSCc2cc3cc(c2)CSC[C@@H](NC1=O)C(=O)N1CCC[C@@H]1C(=O)N[C@H](Cc1ccc(O)cc1)C(=O)N[C@H](CO)C(=O)N[C@H]([C@H](C)O)C(=O)N[C@H](Cc1c[nH]cn1)C(=O)N[C@H](CCCNC(=N)N)C(=O)N[C@@H](C(=O)NCC(N)=O)CSC3` [Peptide P8-D-L7A] (H-[dA][dC][dL][dL][dQ][dS][dA][dL][dC][dP][dY][dS][dT][dH][dR][dC]G-NH2; linker 2-9-16 via TBMB; N-terminus assumed), for which the “MIC of Ala scan of P8-D” value is 512 µg/mL.
